Laboratory results from patent US20100003276A1 (priority 2004, published 2010).

Biological target: Bacillus anthracis lethal factor (Bacillus anthracis, UniProt P15917)
Type: biochemical
Settings: read-out: lethal factor enzyme binding assay IC50

Bacillus anthracis lethal factor, sequence (P15917 34-809 limits assumed): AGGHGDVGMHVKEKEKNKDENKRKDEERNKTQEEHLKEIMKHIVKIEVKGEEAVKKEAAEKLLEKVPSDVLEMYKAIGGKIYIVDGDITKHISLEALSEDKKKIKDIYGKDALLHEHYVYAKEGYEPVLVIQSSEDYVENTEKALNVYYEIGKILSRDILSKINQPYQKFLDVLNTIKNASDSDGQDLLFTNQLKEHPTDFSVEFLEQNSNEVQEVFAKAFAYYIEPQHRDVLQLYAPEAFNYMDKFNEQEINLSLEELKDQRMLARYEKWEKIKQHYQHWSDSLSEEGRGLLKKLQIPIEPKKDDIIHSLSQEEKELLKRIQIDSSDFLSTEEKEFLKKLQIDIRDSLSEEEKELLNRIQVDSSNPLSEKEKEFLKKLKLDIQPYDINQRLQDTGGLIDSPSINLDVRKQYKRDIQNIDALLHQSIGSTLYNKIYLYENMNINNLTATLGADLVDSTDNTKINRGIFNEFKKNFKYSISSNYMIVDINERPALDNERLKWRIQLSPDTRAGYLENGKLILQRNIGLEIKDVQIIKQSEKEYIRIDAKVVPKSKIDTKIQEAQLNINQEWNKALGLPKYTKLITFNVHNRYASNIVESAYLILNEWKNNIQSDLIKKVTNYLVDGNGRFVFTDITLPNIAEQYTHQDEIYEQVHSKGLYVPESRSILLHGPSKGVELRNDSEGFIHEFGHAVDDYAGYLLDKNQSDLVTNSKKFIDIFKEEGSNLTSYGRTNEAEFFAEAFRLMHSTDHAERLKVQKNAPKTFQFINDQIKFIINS

`Cc1cc(S(=O)(=O)N[C@@H](C(=O)NO)C(C)C)ccc1F` [N-hydroxy-2(R)-[(4-fluoro-3-methylphenylsulfonyl)]amino-3-methylbutyramide] gave an IC50 of 130 nM.
